From patent US20120178915A1, “PYRIMIDINE DERIVATIVES AND ANALOGS, PREPARATION METHOD AND USE THEREOF” (priority 2009, published 2012)
In brackets after ≈: the same amount, converted by molar mass. Like-named read-outs stand apart in the source and are kept apart here.

What was measured:
Gram-positive Bacteria = format: cell-based; details: Enterococcus faecalis (VRE), Staphylococcus aureus (MRSA), Streptococcus pneumoniae 6303 (PRSP); Bacillus cereus, Bacillus subtilis, Enterococcus faecalis, Staphylococcus aureus, Streptococcus pneumoniae, Streptococcus agalactiae B and streptococci 4
Bacillus cereus 2 = assay: microbe, parasite or virus in culture; format: cell-based; details: 37° C., 24 h, read-out: Minimum Inhibitory Concentration, MIC
Bacillus cereus 246 = assay: microbe, parasite or virus in culture; format: cell-based; details: 37° C., 24 h, read-out: Minimum Inhibitory Concentration, MIC
Bacillus subtilis 82 = assay: microbe, parasite or virus in culture; format: cell-based; details: 37° C., 24 h, read-out: Minimum Inhibitory Concentration, MIC
Bacillus subtilis 168 = assay: microbe, parasite or virus in culture; format: cell-based; details: 37° C., 24 h, read-out: Minimum Inhibitory Concentration, MIC
[1] = system: Enterococcus faecalis 29212; assay: microbe, parasite or virus in culture; format: cell-based; details: 37° C., 24 h, read-out: Minimum Inhibitory Concentration, MIC
[2] = system: Enterococcus faecalis 51299; assay: microbe, parasite or virus in culture; format: cell-based; details: Enterococcus faecalis, 51299, 24 h, read-out: Minimum Inhibitory Concentration, MIC
[3] = system: Enterococcus faecalis 19433; assay: microbe, parasite or virus in culture; format: cell-based; details: 37° C., 24 h, read-out: Minimum Inhibitory Concentration, MIC
[4] = system: Enterococcus faecalis F2518 (VRE); assay: microbe, parasite or virus in culture; format: cell-based; details: 24 h, read-out: Minimum Inhibitory Concentration, MIC
[5] = system: Enterococcus fecal F631 (VRE); assay: organism not typed; format: cell-based; details: 24 h, read-out: Minimum Inhibitory Concentration, MIC
[6] = system: Enterococcus faecalis 1513 (VRE); assay: microbe, parasite or virus in culture; format: cell-based; details: 24 h, read-out: Minimum Inhibitory Concentration, MIC
[7] = system: Enterococcus faecalis 583 (VRE); assay: microbe, parasite or virus in culture; format: cell-based; details: 24 h, read-out: Minimum Inhibitory Concentration, MIC
[8] = system: Staphylococcus aureus 29231; assay: microbe, parasite or virus in culture; format: cell-based; details: 37° C., 24 h, read-out: Minimum Inhibitory Concentration, MIC
[9] = system: Staphylococcus aureus 43300 (MRSA); assay: microbe, parasite or virus in culture; format: cell-based; details: 24 h, read-out: Minimum Inhibitory Concentration, MIC
[10] = system: Staphylococcus aureus 703 (MRSA); assay: microbe, parasite or virus in culture; format: cell-based; details: 24 h, read-out: Minimum Inhibitory Concentration, MIC
[11] = system: Staphylococcus aureus 704 (MRSA); assay: microbe, parasite or virus in culture; format: cell-based; details: 24 h, read-out: Minimum Inhibitory Concentration, MIC
[12] = system: Staphylococcus aureus 705 (MRSA); assay: microbe, parasite or virus in culture; format: cell-based; details: 24 h, read-out: Minimum Inhibitory Concentration, MIC
[13] = system: Streptococcus pneumoniae 6303 (PRSP); assay: microbe, parasite or virus in culture; format: cell-based; details: 24 h, read-out: Minimum Inhibitory Concentration, MIC
[14] = system: Streptococcus pneumoniae 62; assay: microbe, parasite or virus in culture; format: cell-based; details: 37° C., 24 h, read-out: Minimum Inhibitory Concentration, MIC
[15] = system: Streptococcus pneumoniae 6301; assay: microbe, parasite or virus in culture; format: cell-based; details: 37° C., 24 h, read-out: Minimum Inhibitory Concentration, MIC
[16] = system: Streptococcus pneumoniae M2; assay: microbe, parasite or virus in culture; format: cell-based; details: 37° C., 24 h, read-out: Minimum Inhibitory Concentration, MIC
Pyogenic Streptococcus = assay: microbe, parasite or virus in culture; format: cell-based; details: 37° C., 24 h, read-out: Minimum Inhibitory Concentration, MIC
[17] = system: Streptococcus agalactiae B; assay: microbe, parasite or virus in culture; format: cell-based; details: 37° C., 24 h, read-out: Minimum Inhibitory Concentration, MIC
green Streptococcus 1009 = assay: microbe, parasite or virus in culture; format: cell-based; details: 37° C., 24 h, read-out: Minimum Inhibitory Concentration, MIC
[18] = system: Streptococcus bovis 10035; assay: microbe, parasite or virus in culture; format: cell-based; details: Streptococcus equinus, 37° C., 24 h, read-out: Minimum Inhibitory Concentration, MIC
Streptococcus 10342 = assay: MIC broth microdilution; format: cell-based; details: 37° C., 24 h, read-out: Minimum Inhibitory Concentration, MIC
[19] = system: Streptococcus pneumoniae 10351; assay: microbe, parasite or virus in culture; format: cell-based; details: 37° C., 24 h, read-out: Minimum Inhibitory Concentration, MIC
Bacillus anthracis 1 = assay: microbe, parasite or virus in culture; format: cell-based; details: Bacillus anthracis, 1, 24 h, read-out: Minimum Inhibitory Concentration, MIC
[20] = system: Corynebacterium diphtheriae; assay: microbe, parasite or virus in culture; format: cell-based; details: 37° C., 24 h, read-out: Minimum Inhibitory Concentration, MIC
Clostridium tetani = assay: microbe, parasite or virus in culture; format: cell-based; details: 24 h
Clostridium perfringens = assay: microbe, parasite or virus in culture; format: cell-based; details: 24 h, read-out: Minimum Inhibitory Concentration, MIC
Oral candidiasis = assay: MIC broth microdilution; format: cell-based; details: Microorganism 32, Oral candidiasis; 37° C., 24 h; read-out: Minimum Inhibitory Concentration, MIC
MIC broth microdilution = format: cell-based; details: Microorganism 33, Dermatophytosis; 37° C., 24 h; read-out: Minimum Inhibitory Concentration, MIC
MRSA 2152 = assay: Antibacterial studies in vivo, survival of mice infected with MRSA 2152; details: dose mg/kg: ciprofloxacin 20, 3: 30, 7: 40, 21: 50, 33: 25, 70: 70; for Survival rate (%) (life prolongation rate): (survival days of test group − blank group)/blank group ×100%, MRSA 2152 mice, tail vein; for Survival: mice inoculated intraperitoneally with MRSA 2152, test compound by tail vein, repeated after six hours, saline 1.3 days
[21] = read-out: Minimum Inhibitory Concentration, MIC, Microorganism 29, Clostridium tetani, 37° C.
[22] = read-out: Minimum Inhibitory Concentration, MIC, Microorganism 30, Clostridium tetani (second line of that name), 37° C.

| Compound | inhibition of growth (conclusion from MICs) (Gram-positive Bacteria) | MIC (Bacillus cereus 2) [µM] | MIC (Bacillus cereus 246) [µM] | MIC (Bacillus subtilis 82) [µM] | MIC (Bacillus subtilis 168) [µM] | MIC [1] [µM] | MIC [2] [µM] | MIC [3] [µM] | MIC [4] [µM] | MIC [5] [µM] | MIC [6] [µM] | MIC [7] [µM] | MIC [8] [µM] | MIC [9] [µM] | MIC [10] [µM] | MIC [11] [µM] | MIC [12] [µM] | MIC [13] [µM] | MIC [14] [µM] | MIC [15] [µM] | also measured |
| --- | --- | --- | --- | --- | --- | --- | --- | --- | --- | --- | --- | --- | --- | --- | --- | --- | --- | --- | --- | --- | --- |
| Cc1c(-c2ccc(C(F)(F)F)cc2)[nH]c2c(-c3ccc(Cl)cc3Cl)c(C3CC3)nn2c1=O [Compound 21] | significantly inhibited the growth | 0.36 (≈ 0.172 µg/mL) | 1.55 (≈ 0.741 µg/mL) | 0.68 (≈ 0.325 µg/mL) | 0.46 (≈ 0.22 µg/mL) | 0.32 (≈ 0.153 µg/mL) | 10.5 (≈ 5.02 µg/mL) | 12.3 (≈ 5.88 µg/mL) | 2.5 (≈ 1.2 µg/mL) | 0.33 (≈ 0.158 µg/mL) | 2.3 (≈ 1.1 µg/mL) | 0.11 (≈ 0.0526 µg/mL) | 0.6 (≈ 0.287 µg/mL) | 0.35 (≈ 0.167 µg/mL) | 0.42 (≈ 0.201 µg/mL) | 0.28 (≈ 0.134 µg/mL) | 0.3 (≈ 0.143 µg/mL) | 1.33 (≈ 0.636 µg/mL) | 0.25 (≈ 0.12 µg/mL) | 0.23 (≈ 0.11 µg/mL) | MIC [16]: 0.02 µM (≈ 0.00957 µg/mL); MIC (Pyogenic Streptococcus): 1.23 µM (≈ 0.588 µg/mL); MIC [17]: 0.55 µM (≈ 0.263 µg/mL); MIC (green Streptococcus 1009): 1.55 µM (≈ 0.741 µg/mL); MIC [18]: 1.25 µM (≈ 0.598 µg/mL); MIC (Streptococcus 10342): 1.35 µM (≈ 0.646 µg/mL); MIC [19]: 1.25 µM (≈ 0.598 µg/mL); MIC (Bacillus anthracis 1): 13.5 µM (≈ 6.46 µg/mL); MIC [20]: 30.3 µM (≈ 14.5 µg/mL); MIC (Clostridium tetani; [21]): 30.2 µM (≈ 14.4 µg/mL); MIC (Clostridium tetani; [22]): 80.3 µM (≈ 38.4 µg/mL); MIC (Clostridium perfringens): 32 µM (≈ 15.3 µg/mL); MIC (Oral candidiasis): 88.5 µM (≈ 42.3 µg/mL); MIC (MIC broth microdilution): 33.7 µM (≈ 16.1 µg/mL); Survival rate (%) (life prolongation rate) (MRSA 2152): 133.2%; Survival (MRSA 2152): 3.2 days |
| Cc1nn2c(=O)cc(-c3ccc(C(F)(F)F)cc3)[nH]c2c1-c1ccc(Cl)cc1Cl [Compound 7] | significantly inhibited the growth | 0.63 (≈ 0.276 µg/mL) | 1.25 (≈ 0.548 µg/mL) | 0.02 (≈ 0.00876 µg/mL) | 0.22 (≈ 0.0964 µg/mL) | 0.31 (≈ 0.136 µg/mL) | 2.5 (≈ 1.1 µg/mL) | 0.61 (≈ 0.267 µg/mL) | 0.23 (≈ 0.101 µg/mL) | 0.63 (≈ 0.276 µg/mL) | 0.65 (≈ 0.285 µg/mL) | 0.3 (≈ 0.131 µg/mL) | 5 (≈ 2.19 µg/mL) | 2.5 (≈ 1.1 µg/mL) | 2.5 (≈ 1.1 µg/mL) | 0.32 (≈ 0.14 µg/mL) | 0.55 (≈ 0.241 µg/mL) | 0.21 (≈ 0.092 µg/mL) | 0.19 (≈ 0.0833 µg/mL) | 5 (≈ 2.19 µg/mL) | MIC [16]: 2.5 µM (≈ 1.1 µg/mL); MIC (Pyogenic Streptococcus): 2.5 µM (≈ 1.1 µg/mL); MIC [17]: 0.22 µM (≈ 0.0964 µg/mL); MIC (green Streptococcus 1009): 1.35 µM (≈ 0.592 µg/mL); MIC [18]: 2.25 µM (≈ 0.986 µg/mL); MIC (Streptococcus 10342): 0.25 µM (≈ 0.11 µg/mL); MIC [19]: 1.25 µM (≈ 0.548 µg/mL); MIC (Bacillus anthracis 1): 80.3 µM (≈ 35.2 µg/mL); MIC [20]: 71.2 µM (≈ 31.2 µg/mL); MIC (Clostridium tetani; [21]): 50.3 µM (≈ 22 µg/mL); MIC (Clostridium tetani; [22]): 22.1 µM (≈ 9.69 µg/mL); MIC (Clostridium perfringens): 50.2 µM (≈ 22 µg/mL); MIC (Oral candidiasis): 35.6 µM (≈ 15.6 µg/mL); MIC (MIC broth microdilution): 36.5 µM (≈ 16 µg/mL); Survival rate (%) (life prolongation rate) (MRSA 2152): 330.7%; Survival (MRSA 2152): 5.6 days |
